Series [1] is described as follows: The drug is tested on Z-016 corresponding to mouse gut metagenome with ENA study accession number: PRJEB37062 and ENA sample accession number: ERS12561815 for biotransformation under anaerobic condition. The drug concentrations were measured over 9 timepoints collected between 0 and 24 hours of incubation by liquid-chromatography-coupled mass spectrometry (LC–MS). The settings on record: 2 µM.

Series [2] can be described thus: The drug is tested on Z-027 corresponding to metagenome with ENA study accession number: PRJEB37062 and ENA sample accession number: ERS12561826 for biotransformation under anaerobic condition. The drug concentrations were measured over 9 timepoints collected between 0 and 24 hours of incubation by liquid-chromatography-coupled mass spectrometry (LC–MS). The settings on record: 2 µM.

The nature of series [3]: The drug is tested on WLS-082 corresponding to human gut metagenome with ENA study accession number: PRJEB37062 and ENA sample accession number: ERS12561751 for biotransformation under anaerobic condition. The drug concentrations were measured over 9 timepoints collected between 0 and 24 hours of incubation by liquid-chromatography-coupled mass spectrometry (LC–MS). The settings on record: 2 µM.

The conditions of series [4]: human gut metagenome, 24 h, 2 µM.
Series [5] can be described thus: The drug is tested on WLS-350 corresponding to human gut metagenome with ENA study accession number: PRJEB37062 and ENA sample accession number: ERS12561789 for biotransformation under anaerobic condition. The drug concentrations were measured over 9 timepoints collected between 0 and 24 hours of incubation by liquid-chromatography-coupled mass spectrometry (LC–MS). The settings on record: 2 µM.

For series [6] the following is noted: human gut metagenome, 24 h, 2 µM. This is another data set of the same source.
Series [7] can be described thus: The drug is tested on Z-005 corresponding to metagenome with ENA study accession number: PRJEB37062 and ENA sample accession number: ERS12561805 for biotransformation under anaerobic condition. The drug concentrations were measured over 9 timepoints collected between 0 and 24 hours of incubation by liquid-chromatography-coupled mass spectrometry (LC–MS). The settings on record: 2 µM.

The conditions of series [8]: human gut metagenome, 24 h, 2 µM. This is another data set of the same source.
For series [9] the following is noted: human gut metagenome, 24 h, 2 µM. The source holds these as a separate data set.
For series [10] the following is noted: human gut metagenome, 24 h, 2 µM. The source holds these as a separate data set.
Series [11] is described as follows: The drug is tested on Z-021 corresponding to metagenome with ENA study accession number: PRJEB37062 and ENA sample accession number: ERS12561820 for biotransformation under anaerobic condition. The drug concentrations were measured over 9 timepoints collected between 0 and 24 hours of incubation by liquid-chromatography-coupled mass spectrometry (LC–MS). The settings on record: 2 µM.

For series [12] the following is noted: human gut metagenome, 24 h, 2 µM. The source holds these as a separate data set.
The conditions of series [13]: human gut metagenome, 24 h, 2 µM. The source holds these as a separate data set.
Series [14] in a line: The drug is tested on Z-004 corresponding to metagenome with ENA study accession number: PRJEB37062 and ENA sample accession number: ERS12561804 for biotransformation under anaerobic condition. The drug concentrations were measured over 9 timepoints collected between 0 and 24 hours of incubation by liquid-chromatography-coupled mass spectrometry (LC–MS). The settings on record: 2 µM.

Series [15] is described as follows: The drug is tested on WLS-007 corresponding to human gut metagenome with ENA study accession number: PRJEB37062 and ENA sample accession number: ERS12561742 for biotransformation under anaerobic condition. The drug concentrations were measured over 9 timepoints collected between 0 and 24 hours of incubation by liquid-chromatography-coupled mass spectrometry (LC–MS). The settings on record: 2 µM.

For series [16] the following is noted: human gut metagenome, 24 h, 2 µM. The source holds these as a separate data set.
The conditions of series [17]: human gut metagenome, 24 h, 2 µM. This is another data set of the same source.
For series [18] the following is noted: human gut metagenome, 24 h, 2 µM. This is another data set of the same source.
The conditions of series [19]: human gut metagenome, 24 h, 2 µM. This is another data set of the same source.
Series [20] in a line: The drug is tested on WLS-027 corresponding to human gut metagenome with ENA study accession number: PRJEB37062 and ENA sample accession number: ERS12561744 for biotransformation under anaerobic condition. The drug concentrations were measured over 9 timepoints collected between 0 and 24 hours of incubation by liquid-chromatography-coupled mass spectrometry (LC–MS). The settings on record: 2 µM.
Note: call rule not given here.

In the case of `CN(C)C(=O)Oc1cc(OC(=O)N(C)C)cc(C(O)CNC(C)(C)C)c1` (stereo not given) [BAMBUTEROL], the “Bacterial Biotransformation” value in series [1] is “Compound NOT metabolized”; in series [2] it was “Compound NOT metabolized”; in series [3], “Compound NOT metabolized”; in series [4], “Compound NOT metabolized”; in series [5], “Compound metabolized”; in [6] it was “Compound metabolized”. Moreover, the “Bacterial Biotransformation” value is “Compound NOT metabolized” in series [7]; “Compound NOT metabolized” in [8]; “Compound metabolized” in series [9]; “Compound metabolized” in series [10]; “Compound metabolized” in series [11]; “Compound metabolized” in [12]. Moreover, the “Bacterial Biotransformation” value in series [13] is reported as “Compound NOT metabolized”; in series [14], “Compound metabolized”; in [15], “Compound metabolized”; in series [16] it was “Compound NOT metabolized”; in series [17], “Compound metabolized”; in series [18], “Compound metabolized”. For the same compound, the “Bacterial Biotransformation” value in [19] and in series [20] was “Compound NOT metabolized” in each case.
As to `CCc1oc2ccccc2c1C(=O)c1cc(Br)c(O)c(Br)c1` [BENZBROMARONE], the “Bacterial Biotransformation” value in series [1] was “Compound NOT metabolized”; in [2] it was “Compound NOT metabolized”; in series [3], “Compound metabolized”; in series [4] it was “Compound NOT metabolized”; in series [5], “Compound NOT metabolized”; in [6] it was “Compound NOT metabolized”. The “Bacterial Biotransformation” value is on record as “Compound metabolized” in [7]; “Compound NOT metabolized” in [8]; “Compound metabolized” in [9]; “Compound metabolized” in [10]; “Compound NOT metabolized” in [11]; “Compound metabolized” in series [12]. Also, the “Bacterial Biotransformation” value in series [13] is on record as “Compound metabolized”; in series [14] it was “Compound NOT metabolized”; in series [15], “Compound metabolized”; in series [16], “Compound NOT metabolized”; in [17], “Compound metabolized”; in series [18], “Compound metabolized”. For the same compound, the “Bacterial Biotransformation” value in series [19] and in series [20] was “Compound metabolized” each time.
Turning to `CC(C)C[C@H]1C(=O)N2CCC[C@H]2[C@]2(O)O[C@](NC(=O)[C@@H]3C=C4c5cccc6[nH]c(Br)c(c56)C[C@H]4N(C)C3)(C(C)C)C(=O)N12.CS(=O)(=O)O` [BROMOCRIPTINE MESYLATE], the “Bacterial Biotransformation” value is “Compound metabolized” in series [1]; “Compound metabolized” in series [2]; “Compound metabolized” in series [3]; “Compound NOT metabolized” in series [4]; “Compound metabolized” in [5]; “Compound metabolized” in series [6]. The “Bacterial Biotransformation” value in series [7] is “Compound metabolized”; in series [8] it was “Compound NOT metabolized”; in series [9] it was “Compound metabolized”; in [10], “Compound NOT metabolized”; in series [11] it was “Compound metabolized”; in series [12] it was “Compound metabolized”. Also, the “Bacterial Biotransformation” value in series [13], in [14], in series [15], in series [16], in series [17] and in series [18] was “Compound metabolized” in each case. For the same compound, the “Bacterial Biotransformation” value in series [19] and in [20] was “Compound metabolized” each time.
Turning to `CC(NC(C)(C)C)C(=O)c1cccc(Cl)c1` (stereo not given) [BUPROPION], the “Bacterial Biotransformation” value in [1], in series [2], in series [3], in series [4], in [5] and in series [6] was “Compound NOT metabolized” throughout. Besides, the “Bacterial Biotransformation” value in [7] is “Compound NOT metabolized”; in series [8], “Compound NOT metabolized”; in series [9], “Compound NOT metabolized”; in [10] it was “Compound metabolized”; in series [11], “Compound NOT metabolized”; in series [12], “Compound NOT metabolized”. Further, the “Bacterial Biotransformation” value in series [13] is reported as “Compound NOT metabolized”; in series [14] it was “Compound NOT metabolized”; in series [15] it was “Compound NOT metabolized”; in [16], “Compound NOT metabolized”; in series [17] it was “Compound metabolized”; in series [18] it was “Compound NOT metabolized”. For the same compound, the “Bacterial Biotransformation” value in [19] and in series [20] was “Compound NOT metabolized” each time.
In the case of `O=C1CC2(CCCC2)CC(=O)N1CCCCN1CCN(c2ncccn2)CC1` [BUSPIRONE], the “Bacterial Biotransformation” value is recorded as “Compound NOT metabolized” in series [1]; “Compound NOT metabolized” in [2]; “Compound NOT metabolized” in [3]; “Compound NOT metabolized” in series [4]; “Compound metabolized” in series [5]; “Compound metabolized” in [6]. The “Bacterial Biotransformation” value in series [7] is reported as “Compound NOT metabolized”; in [8], “Compound NOT metabolized”; in series [9], “Compound NOT metabolized”; in series [10], “Compound metabolized”; in [11], “Compound NOT metabolized”; in series [12], “Compound metabolized”. For the same compound, the “Bacterial Biotransformation” value is recorded as “Compound metabolized” in series [13]; “Compound NOT metabolized” in [14]; “Compound NOT metabolized” in series [15]; “Compound metabolized” in series [16]; “Compound metabolized” in series [17]; “Compound NOT metabolized” in series [18]. For the same compound, the “Bacterial Biotransformation” value in series [19] and in [20] was “Compound NOT metabolized” in each case.
On to `CCCC(C)(COC(N)=O)COC(=O)NC(C)C` (stereo not given) [CARISOPRODOL], for which the “Bacterial Biotransformation” value in series [1] is recorded as “Compound metabolized”; in series [2], “Compound metabolized”; in [3], “Compound metabolized”; in series [4], “Compound NOT metabolized”; in [5] it was “Compound metabolized”; in [6] it was “Compound metabolized”. Further, the “Bacterial Biotransformation” value in series [7] was “Compound metabolized”; in [8], “Compound NOT metabolized”; in series [9] it was “Compound metabolized”; in series [10], “Compound metabolized”; in series [11], “Compound NOT metabolized”; in series [12], “Compound metabolized”. The “Bacterial Biotransformation” value in [13] is on record as “Compound metabolized”; in series [14], “Compound metabolized”; in [15], “Compound metabolized”; in [16] it was “Compound metabolized”; in [17], “Compound metabolized”; in series [18], “Compound NOT metabolized”. For the same compound, the “Bacterial Biotransformation” value in series [19] and in series [20] was “Compound metabolized” in each case.
